What all share (format): in vivo
The subject of test [1] is Meloidogyne incognita. Description: Meloidogyne incognita test. The conditions noted are these: 336 h, lettuce, after 14 days, read-out: nematicidal efficacy (formation of galls). The procedure:
Meloidogyne incognita Test Solvent: 125.0 parts by weight of acetone To produce a suitable active compound preparation, 1 part by weight of active compound is mixed with the stated amount of solvent and the concentrate is diluted with water to the desired concentration. Vessels are filled with sand, active compound solution, an egg/larvae suspension of the southern rootknot nematode (Meloidogyne incognita) and lettuce seeds. The lettuce seeds germinate and the plants develop. The galls develop on the roots. After 14 days, the nematicidal efficacy in % is determined by the formation of galls. 100% means that no galls were found; 0% means that the number of galls on the treated plants corresponds to the untreated control.

In test [2] the test system is Myzus persicae. Description: Myzus persicae spray test (Chinese cabbage leaf discs). The conditions noted are these: foliar, 120 h, 500 g/ha, after 5-6 days, read-out: efficacy. A digest of the protocol: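 Formulated compound in acetone/dimethylformamide, diluted in water with 1000 ppm emulsifier, was sprayed onto Brassica pekinensis leaf discs carrying mixed-stage Myzus persicae. Percent mortality was read 5-6 days later (0% = no aphids killed, 100% = all killed).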

The subject of test [3] is Myzus persicae. Description: Myzus persicae oral test. The conditions noted are these: 120 h, 20 ppm, oral uptake, after 5 days, read-out: efficacy. The method in brief: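 Aphids of mixed ages imbibe, through parafilm, compound solution (acetone stock, water-diluted) combined with sugar-supplemented IPL41 medium to 200 μl. Efficacy read at day 5 as percent killed, 0% meaning no deaths.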

Regarding `Cn1cc(C(=O)NS(=O)(=O)c2c(Cl)cccc2Cl)nc1-c1c(F)cc(F)cc1F` [Example 4], in test [1], the pest or weed control at 20 ppm worked out at 90%.
On the same count and under the same terms, then `Cc1ccccc1-c1nc(C(=O)NS(=O)(=O)c2ccccc2)cn1C` [Example 50], with 90%; and `CC(C)S(=O)(=O)NC(=O)c1cn(C)c(-c2c(F)cccc2F)n1` [Example 85], with 90%; and `CCc1[nH]c(-c2cccc(Cl)c2)nc1C(=O)NS(=O)(=O)c1ccccc1C` [Example 129], with 90%.
The same measure, in the same setting: then `COc1ccc(Cl)c(S(=O)(=O)NC(=O)c2c(Cl)nc(-c3ccccc3Cl)n2C)c1` [Example 203], with 100%.
Still for that read-out and setting: then `Cc1[nH]c(-c2ccc(Cl)cc2)nc1C(=O)NS(=O)(=O)c1ccccc1Cl` [Example 232], with 90%.
Turning to `CCc1[nH]c(-c2ccccc2Cl)nc1C(=O)NS(=O)(=O)c1ccccc1Cl` [Example 243], the pest or weed control at 20 ppm in test [1] came out at 90%.
Same read-out and setting: next, `CCc1[nH]c(-c2ccc(F)cc2F)nc1C(=O)NS(=O)(=O)c1cc(OC)ccc1Cl` [Example 244]: 90%; `CCc1[nH]c(-c2c(F)cccc2F)nc1C(=O)NS(=O)(=O)c1cc(OC)ccc1Cl` [Example 246]: 90%.
On to `CCNc1ccccc1S(=O)(=O)NC(=O)c1cn(C)c(-c2ccccc2Cl)n1` [Example 251], for which the pest or weed control at 20 ppm in test [1] amounted to 90%.
Same read-out and setting: next, `CC(C)Nc1ccccc1S(=O)(=O)NC(=O)c1cn(C)c(-c2ccccc2Cl)n1` [Example 253]: 90%; `CCc1[nH]c(-c2cc(Cl)cc(Cl)c2)nc1C(=O)NS(=O)(=O)c1ccccc1Cl` [Example 254]: 90%.
On the same count and under the same terms, next, `CCc1[nH]c(-c2cccc(Cl)c2Cl)nc1C(=O)NS(=O)(=O)c1ccccc1C` [Example 260]: 100%.
Turning to `Cc1ccccc1S(=O)(=O)NC(=O)c1cc(-c2ccccc2Cl)n(-c2ncccc2Cl)n1` [Example 261], in test [1], the pest or weed control at 20 ppm amounted to 90%.
The same measure, in the same setting: next, `O=C(NS(=O)(=O)c1ccccc1Cl)c1cc(-c2ccccc2Cl)n(-c2ncccc2Cl)n1` [Example 262]: 90%; `O=C(NS(=O)(=O)c1c(Cl)cccc1Cl)c1cc(-c2ccccc2Cl)n(-c2ncccc2Cl)n1` [Example 263]: 100%.
The same measure, in the same setting: next, `O=C(NS(=O)(=O)c1ccccc1Cl)c1cc(-c2ncccc2Cl)n(-c2ccccc2Cl)n1` [Example 264]: 100%.
The same measure, in the same setting: next, `Cc1cccc(C)c1S(=O)(=O)NC(=O)c1cc(-c2ncccc2Cl)n(-c2ccccc2Cl)n1` [Example 267]: 100%.
For the molecule `CC(C)Cc1ccc(S(=O)(=O)NC(=O)c2cn(C)c(-c3c(F)cccc3F)n2)cc1` [Example 287], the pest or weed control at 20 ppm in test [1] was found to be 90%.
Consider `CC(C)Cc1ccc(S(=O)(=O)NC(=O)c2cn(C)c(-c3ccccc3Cl)n2)cc1` [Example 288], for which, in test [1], the pest or weed control at 20 ppm was 90%.
On the same count and under the same terms, next, `Cc1cc(C(=O)NS(=O)(=O)c2ccccc2Br)nn1-c1ccccc1C(F)(F)F` [Example 292]: 90%; `COc1ccc(S(=O)(=O)NC(=O)c2cn(C)c(-c3c(F)cccc3F)n2)cn1` [Example 344]: 90%; `Cn1cc(C(=O)NS(=O)(=O)c2cc(Cl)c(Cl)s2)nc1-c1c(F)cccc1F` [Example 355]: 90%.
As to `CC(C)c1ccccc1S(=O)(=O)NC(=O)c1cn(C)c(-c2c(F)cccc2F)n1` [Example 359], the pest or weed control at 20 ppm in test [1] turned out to be 90%.
Still for that read-out and setting: next, `Cn1cc(C(=O)NS(=O)(=O)c2ccccc2C(C)(C)C)nc1-c1c(F)cccc1F` [Example 360]: 90%; `Cc1cccc(C2CCCC2)c1S(=O)(=O)NC(=O)c1cn(C)c(-c2c(F)cccc2F)n1` [Example 362]: 100%.
Regarding `Cn1cc(C(=O)NS(=O)(=O)c2c(C(F)(F)F)cccc2[Si](C)(C)C)nc1-c1c(F)cccc1F` [Example 375], in test [1], the pest or weed control at 20 ppm is 90%.
As for `Cn1cc(C(=O)NS(=O)(=O)c2ccccc2OC(C)(C)C)nc1-c1c(F)cccc1F` [Example 376], the pest or weed control at 20 ppm in test [1] was found to be 90%.
On to `COc1cccc(C(C)C)c1S(=O)(=O)NC(=O)c1cn(C)c(-c2c(F)cccc2F)n1` [Example 377], for which, in test [1], the pest or weed control at 20 ppm came to 90%.
On to `COc1ccc(C)c(S(=O)(=O)NC(=O)c2cn(C)c(-c3cccnc3Cl)n2)c1` [Example 565], for which, in test [2], the pest or weed control at 500 g/ha amounted to 100%. For the same molecule, the pest or weed control at 20 ppm in test [3] was 100%.
Take `Cc1ccc(F)cc1S(=O)(=O)NC(=O)c1cn(C)c(-c2cccnc2Cl)n1` [Example 566]: in test [2], the pest or weed control at 500 g/ha was determined as 100%. Besides, the pest or weed control at 20 ppm in test [3] is 100%.
`CCn1cc(C(=O)NS(=O)(=O)c2ccccc2OC)nc1-c1c(F)cccc1F` [Example 569]: in test [2], the pest or weed control at 500 g/ha turned out to be 100%. Moreover, the pest or weed control at 20 ppm in test [3] came out at 100%.
In the case of `CCn1cc(C(=O)NS(=O)(=O)c2ccccc2C)nc1-c1c(F)cccc1F` [Example 570], the pest or weed control at 500 g/ha in test [2] is 100%. Moreover, in test [3], the pest or weed control at 20 ppm stood at 100%.
Regarding `CCn1cc(C(=O)NS(=O)(=O)c2ccccc2Cl)nc1-c1c(F)cccc1F` [Example 571], the pest or weed control at 500 g/ha in test [2] was 100%. The pest or weed control at 20 ppm in test [3] stood at 100%.
As for `COc1ccccc1S(=O)(=O)NC(=O)c1cn(C)c(-c2ncccc2Cl)n1` [Example 574], in test [2], the pest or weed control at 500 g/ha was 100%. Moreover, in test [3], the pest or weed control at 20 ppm came to 100%.
Regarding `Cn1cc(C(=O)NS(=O)(=O)c2ccccc2Cl)nc1-c1ncccc1Br` [Example 578], the pest or weed control at 500 g/ha in test [2] was 100%. For the same molecule, the pest or weed control at 20 ppm in test [3] worked out at 100%.
For the molecule `Cn1cc(C(=O)NS(=O)(=O)c2ccccc2Br)nc1-c1ncccc1Cl` [Example 585], the pest or weed control at 500 g/ha in test [2] was determined as 100%. Also, in test [3], the pest or weed control at 20 ppm is 100%.
On to `Cn1cc(C(=O)NS(=O)(=O)c2c(Cl)cccc2Br)nc1-c1ncccc1Cl` [Example 589], for which the pest or weed control at 500 g/ha in test [2] was determined as 100%. Further, the pest or weed control at 20 ppm in test [3] was 100%.
Take `COc1ccc(F)cc1S(=O)(=O)NC(=O)c1cn(C)c(-c2ncccc2Cl)n1` [Example 591]: the pest or weed control at 500 g/ha in test [2] was 100%. For the same molecule, the pest or weed control at 20 ppm in test [3] was found to be 100%.
With `Cc1ccsc1S(=O)(=O)NC(=O)c1cn(C)c(-c2ncccc2Cl)n1` [Example 592], the pest or weed control at 500 g/ha in test [2] worked out at 100%. In addition, the pest or weed control at 20 ppm in test [3] came out at 100%.
For the molecule `COc1ccc(OC)c(S(=O)(=O)NC(=O)c2cn(C)c(-c3ncccc3Cl)n2)c1` [Example 598], the pest or weed control at 500 g/ha in test [2] is 90%. Further, in test [3], the pest or weed control at 20 ppm amounted to 100%.
As to `CCc1ccsc1S(=O)(=O)NC(=O)c1cn(C)c(-c2ncccc2F)n1` [Example 604], the pest or weed control at 500 g/ha in test [2] worked out at 90%. Also, the pest or weed control at 20 ppm in test [3] worked out at 90%.
Turning to `COc1ccc(Br)c(S(=O)(=O)NC(=O)c2cn(C)c(-c3ncccc3F)n2)c1` [Example 607], in test [2], the pest or weed control at 500 g/ha worked out at 90%. Also, in test [3], the pest or weed control at 20 ppm is 100%.
`Cn1cc(C(=O)NS(=O)(=O)c2c(Cl)cccc2C(F)(F)F)nc1-c1ncccc1F` [Example 609]: the pest or weed control at 500 g/ha in test [2] amounted to 90%. Besides, the pest or weed control at 20 ppm in test [3] is 100%.

The values above are taken from patent US20200288710A1, “SUBSTITUTED SULPHONAMIDES FOR CONTROLLING ANIMAL PESTS” (BAYER CROPSCIENCE AKTIENGESELLSCHAFT, priority 2016, published 2020).
